According to patent US8420052B2, “Imaging agents useful for identifying AD pathology” (Siemens Medical Solutions USA, Inc., priority 2008, dated 2013):
Values belong to the molecule of their own block, whether it stands above or below them.

Key:
[1] = biological target: 18F-W372 binding sites, amyloid plaque and fibril in human brain slices (Homo sapiens, UniProt P05067); experiment: Human AD brain slice competition against 18F-W372 (IC50); settings: tracer 18F-W372, blocker 0.01 to 10 uM
Description: (§1) The slices were incubated at room temperature for 90 min. The slices were then quickly washed in PBS, followed by 70% EtOH:PBS for 2 min, then 30% EtOH:PBS for 2 min and then quickly washed with PBS. The slices were dried for 30 min and then exposed on autoradiographic film for 20 min. The brain slices were then removed from the slide and the radioactivity counted in a gamma counter. The percentage of blocking versus the concentrations of blocker was then plotted, and IC50 was calculated based on the curve.

[2] = biological target: 18F-PiB binding sites, amyloid plaque and fibril in human brain slices (Homo sapiens, UniProt P05067); experiment: Human AD brain slice competition against 18F-PiB (IC50); settings: for IC50: tracer 18F-PiB, human AD brain slices, blocker 0.01 to 10 uM
18F-PiB binding sites, amyloid plaque and fibril in human brain slices, sequence (P05067 672-711 limits assumed): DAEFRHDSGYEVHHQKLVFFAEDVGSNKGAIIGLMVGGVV
Description: as §1

[3] = system: amyloid plaques and fibrils in human brain slices; experiment: Human brain slice competition assay using autoradiography; type: binding; settings: radiolabeled tracer approx. 20 uCi, 90 min rt, lower = more displacement; for _max low dose (percent dose remaining relative to control with no blocker): blocker 0.25 uM; for _max high dose (percent dose remaining relative to control with no blocker): blocker 2.5 uM
Description: Human Brain Slice Competition Assay Using Autoradiography
Briefly, 5 micron thick human brain slices from regions of the brain bearing high amyloid plaque and fibril burden were incubated with approximately 20 uCi of a radiolabeled tracer in 2.5%:2.5%:95% DMSO:EtOH:PBS in the presence of blocker (2.5 and 0.25 uM total concentration) or absence of blocker (control). The slices were incubated at rt for 90 min. The slices were then quickly washed in PBS, followed by 70% EtOH:PBS for 2 min, then 30% EtOH:PBS for 2 min and then quickly washed with PBS. The slices were dried for 30 min and then exposed on autoradiographic film for 20 min. The brain slices were then removed from the slide and the radioactivity counted in a gamma counter. The percent dose remaining, relative to a control with no blocker, at 0.25 uM is represented in the “_max low dose” column. The percent dose remaining, relative to a control with no blocker, at 2.5 uM is represented in the “_max high dose” column.

[4] = Mouse brain microPET imaging; type: in vivo, mice
Description: Mouse Brain MicroPET Imaging
FIGS. 11 and 12 show the results of mouse brain imaging with 18F-W372 in WT and APP mice. […] There is not much difference between APP and WT mice, but both App mice do appear to be slightly better retained after 13 min (App:WT=1.5:1).
FIGS. 14a and 14b show a comparison of brain uptake between 18F-PiB and 18F-W372 using dynamic microPET scanning in young and old mice. […] The rapid washout of [18F]W372 is presumably a major factor for its low non-specific binding, yet the washout is slow enough to distinguish WT from APP.

[5] = system: human brain slices from AD patients; experiment: Grey to white matter binding of tracers on human AD brain slices under various washing conditions; settings: EtOH:water washes
Description: A study was conducted to examine the grey to white matter binding ratios for 2 different tracers: 18F-W372 and 18F-PiB. After the human brain slices from AD patients were incubated with a given tracer for 1 hr, the slices were washed with various EtOH:water solutions in an attempt to optimize the grey to white matter ratios. The results were surprising and unexpected in view of previous work performed by other researchers.

[6] = Mouse metabolism studies (organ uptake and metabolites); type: in vivo; settings: mice, tail-vein
Description: Approximately 400 μCi of [F-18]W372 (at a volume of 200 μL) was injected via tail-vein into mice. The animals were sacrificed at 5 minutes (n=3) and 30 minutes (n=3) post-injection. Whole blood was obtained, weighed, and centrifuged at 13,000 RPM (3 minutes) to isolate plasma. The brain, kidneys, and liver were harvested, weighed, and homogenized in lysis buffer. 400 μL of each sample was subsequently removed, mixed with an equal volume of chloroform/methanol (1:1), vigorously vortexed, and placed on dry ice for 3 minutes. After thawing, another centrifugation step at 13,000 RPM (7 minutes) allowed for the separation of lipid (CHCl3) and aqueous (MeOH/H2O) phases. The hydrophobic and hydrophilic fractions were then removed, counted for radioactivity in a PerkinElmer Wizard gamma counter, and finally analyzed by Radio-HPLC (Raytest GmbH/Agilent).

[7] = biological target: synthetic beta-Amyloid-42 (Homo sapiens, UniProt P05067); experiment: Amyloid fibril (synthetic A-Beta42) binding assay; settings: 10 uM synthetic beta-Amyloid-42, 90 min; compared with 18F-PiB
synthetic beta-Amyloid-42, sequence (P05067 672-713 limits assumed): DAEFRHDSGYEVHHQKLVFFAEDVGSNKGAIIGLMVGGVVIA
Description: Amyloid Fibril (Synthetic A-Beta42) Binding Assay Incubation of various concentration of [F18]-compound (starting with 200 nM cold compound and 100 μCi of F18-compound) with or without 10 μM of synthetic beta-Amyloid-42 for 90 min Filter through G/F glass fiber, wash filter 2 times with 20% ethanol/PBS at room temperature, count the radioactivity, and measure the KD value.

18F-W372 binding sites, amyloid plaque and fibril in human brain slices, sequence (P05067 whole entry): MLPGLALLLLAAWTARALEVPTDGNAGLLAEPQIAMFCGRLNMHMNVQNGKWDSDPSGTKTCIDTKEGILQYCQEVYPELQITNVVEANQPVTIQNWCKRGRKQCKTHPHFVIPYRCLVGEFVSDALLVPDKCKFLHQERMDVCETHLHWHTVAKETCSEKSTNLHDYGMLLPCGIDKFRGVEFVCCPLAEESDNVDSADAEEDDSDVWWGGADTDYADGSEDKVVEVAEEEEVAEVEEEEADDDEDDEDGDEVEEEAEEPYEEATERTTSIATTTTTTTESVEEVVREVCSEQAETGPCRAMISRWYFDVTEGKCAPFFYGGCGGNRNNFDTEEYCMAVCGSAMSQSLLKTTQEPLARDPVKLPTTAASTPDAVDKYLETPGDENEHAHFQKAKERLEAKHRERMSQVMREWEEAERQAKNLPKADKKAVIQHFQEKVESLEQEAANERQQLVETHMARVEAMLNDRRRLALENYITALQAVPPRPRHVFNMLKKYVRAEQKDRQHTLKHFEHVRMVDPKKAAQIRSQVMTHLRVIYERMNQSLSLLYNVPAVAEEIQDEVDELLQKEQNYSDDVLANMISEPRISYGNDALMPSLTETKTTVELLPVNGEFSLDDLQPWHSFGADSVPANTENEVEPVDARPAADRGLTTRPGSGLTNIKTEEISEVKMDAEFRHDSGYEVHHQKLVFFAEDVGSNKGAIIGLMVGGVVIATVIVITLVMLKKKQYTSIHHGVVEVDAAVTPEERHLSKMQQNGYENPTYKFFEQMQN

- IC50 [1]: 170 nM
SMILES: COc1ccc2c(n1)oc1nc(-c3ccc(F)nc3)cn12 [Compound W393]

- IC50 [1]: 150 nM
SMILES: COc1ccc2c(c1)sc1nc(-c3ccc(F)nc3)cn12 [Compound W388]

- IC50 [2]: 79 nM
SMILES: COc1ccc2c(n1)sc1nc(-c3ccc(F)cc3)cn12 [Compound W332]

- IC50 [1]: 37 nM
- IC50 [2]: 73 nM
SMILES: COc1ccc2c(n1)sc1nc(-c3ccc(F)nc3)cn12 [Compound W372, 7-Methoxy-2(6-fluoropyridin-3-yl)imidazo[2,1-b]8-pyridinothiazole]
- competition with 18F-PiB for binding sites / binding affinity relative to PiB ([2]; human AD brains): strongly competes with 18F-PiB for binding sites in human AD brains

- IC50 [2]: 130 nM
SMILES: COc1ccc2c(n1)sc1nc(-c3ccc(F)c(O)c3)cn12 [Compound W389]

- IC50 [1]: 210 nM
SMILES: COc1ccc2c(n1)sc1nc(-c3cnc(F)cn3)cn12 [Compound W392, 7-methoxy-2(2-fluoropyrazin-5-yl)imidazo[2,1-b]8-pyridinothiazole]

SMILES: c1ccc2c(c1)[nH]c1cnccc12 [Compound W67]
- _max low dose (percent dose remaining relative to control with no blocker) [3]: 101.83%
- _max high dose (percent dose remaining relative to control with no blocker) [3]: 94.93%

SMILES: Nc1ccc2c(c1)oc1ccccc12 [Compound W20]
- _max low dose (percent dose remaining relative to control with no blocker) [3]: 95.11%
- _max high dose (percent dose remaining relative to control with no blocker) [3]: 43.52%

SMILES: CC(=O)n1c2ccccc2c2ccc(OCCOCCOCCF)cc21 [CB17]
- _max low dose (percent dose remaining relative to control with no blocker) [3]: 91.06%
- _max high dose (percent dose remaining relative to control with no blocker) [3]: 62.03%

- IC50 [1]: 71 nM
- IC50 [2]: 210 nM
SMILES: COc1ccc2c(n1)oc1nc(-c3ccc(F)cc3)cn12 [Compound W386, 7-Methoxy-2(4-fluorophenyl)imidazo[2,1-b]8-pyridino-oxazole]

SMILES: O=CNc1ccc2c(c1)[nH]c1cc(OCCOCCOCCF)ccc12 [CB10]
- _max low dose (percent dose remaining relative to control with no blocker) [3]: 69.29%
- _max high dose (percent dose remaining relative to control with no blocker) [3]: 21.60%

SMILES: CNc1ccc2c(c1)[nH]c1cc(O)ccc12 [GC3125]
- _max low dose (percent dose remaining relative to control with no blocker) [3]: 47.08%
- _max high dose (percent dose remaining relative to control with no blocker) [3]: 18.59%

SMILES: COc1ccc2[nH]c3ccc(NCCF)cc3c2c1 [CB13]
- _max low dose (percent dose remaining relative to control with no blocker) [3]: 108.14%
- _max high dose (percent dose remaining relative to control with no blocker) [3]: 110.57%

SMILES: CN(CCOCCOCCF)c1ccc2c(c1)[nH]c1cc(O)ccc12 [Compound W101]
- _max low dose (percent dose remaining relative to control with no blocker) [3]: 81.33%
- _max high dose (percent dose remaining relative to control with no blocker) [3]: 73.62%

SMILES: N#CC1c2ccc(O)cc2N2C=CC=CC12 (centres unmarked) [Compound W99]
- _max low dose (percent dose remaining relative to control with no blocker) [3]: 87.14%
- _max high dose (percent dose remaining relative to control with no blocker) [3]: 76.06%

SMILES: CNc1ccc(-c2nc3ccc(OC)cc3s2)cn1 [Compound W184]
- _max high dose (percent dose remaining relative to control with no blocker) [3]: 8.05%

SMILES: c1ccc2c(c1)Cn1c-2nc2ccccc21 [Compound W81]
- _max low dose (percent dose remaining relative to control with no blocker) [3]: 96.06%
- _max high dose (percent dose remaining relative to control with no blocker) [3]: 81.94%

- IC50 [2]: 73 nM
SMILES: COc1ccc2c(c1)oc1nc(-c3ccc(F)cn3)cn12 [Compound W380, 7-methoxy-2-(5-fluoro-2-pyridyl)-imidazo[2,1-b]benzoxazole]

SMILES: CN(CCF)c1ccc(/C=C2/C(=O)Nc3ccccc32)cc1 [OX-2, (E)-3-(4-((2-fluoroethyl)(methyl)amino)benzylidene)indolin-2-one]
- _max low dose (percent dose remaining relative to control with no blocker) [3]: 68.22%
- _max high dose (percent dose remaining relative to control with no blocker) [3]: 82.78%

SMILES: COc1ccc2c(n1)sc1nc(-c3ccc([18F])nc3)cn12 [Compound 18F-W372]
- brain washout (microPET) ([4]; 30 minute dynamic scans, young/old, WT/App mice): sufficiently slow washout such that one can distinguish WT from APP mice
- brain uptake (microPET) ([4]; WT and APP mice): > 9 % ID/g
- grey to white matter binding ratios ([5]; 1 hr incubation): excellent grey to white matter binding ratios
- non-specific (white matter) binding [5]: lower non-specific binding than 18F-PiB
- brain uptake ([6]; 5 minutes post-injection): 3.8 % ID/g
- brain uptake ([6]; 30 minutes post-injection): 0.47 % ID/g
- KD value, synthetic amyloid fibril [7]: lower KD value compared with the known compound 18F-PiB

SMILES: Oc1cccc2[nH]c3ccccc3c12 [Compound W19]
- _max low dose (percent dose remaining relative to control with no blocker) [3]: 100.46%
- _max high dose (percent dose remaining relative to control with no blocker) [3]: 89.32%

SMILES: COc1cc2c(cc1N)oc1ccccc12 [Compound W33]
- _max low dose (percent dose remaining relative to control with no blocker) [3]: 82.52%
- _max high dose (percent dose remaining relative to control with no blocker) [3]: 36.72%

SMILES: CNc1ccc2c(c1)[nH]c1cc(OCCF)ccc12 [Compound W106]
- _max low dose (percent dose remaining relative to control with no blocker) [3]: 46.04%
- _max high dose (percent dose remaining relative to control with no blocker) [3]: 21.03%

SMILES: CN(CCCCF)c1ccc2c(c1)[nH]c1cc(O)ccc12 [CB14]
- _max low dose (percent dose remaining relative to control with no blocker) [3]: 114.19%
- _max high dose (percent dose remaining relative to control with no blocker) [3]: 49.02%

SMILES: Oc1cccc(-c2cc3ccccn3c2)c1 [Compound W73]
- _max low dose (percent dose remaining relative to control with no blocker) [3]: 66.38%
- _max high dose (percent dose remaining relative to control with no blocker) [3]: 35.16%

SMILES: CNc1ccc2c(c1)[nH]c1cc(OCc3ccccc3)ccc12 [Compound W104]
- _max low dose (percent dose remaining relative to control with no blocker) [3]: 48.35%
- _max high dose (percent dose remaining relative to control with no blocker) [3]: 34.77%

SMILES: NC(=O)c1ccc2cc(-c3cccc([N+](=O)[O-])c3)cn2c1 [Compound W100]
- _max low dose (percent dose remaining relative to control with no blocker) [3]: 97.53%
- _max high dose (percent dose remaining relative to control with no blocker) [3]: 75.02%
